Measurements reported in article PMC8398714, “Synthesis and Evaluation of Biological Activities of Bis(spiropyrazolone)cyclopropanes: A Potential Application against Leishmaniasis” (Molecules, 2021).

What was measured:
MCF-7 = assay: MTS cell viability assay on MCF-7 cells; assay type: cell-based; conditions: Homo sapiens, MCF7, 48 h, Dox 1 µM, mean ± SEM, NA = no activity, read-out: Percentage (%) of inhibition, MCF-7
Description: (§1) Five tumor human cancer cell lines—cerebral astrocytoma (D-384), grade IV prostatic adenocarcinoma (PC-3), mammary adenocarcinoma (MCF-7), human colon carcinoma (RKO) and lung carcinoma (A-549)—along with one immortalized hamster cell line (CHO K-1) were used. The cells PC-3, MCF-7 and RKO were cultured in RPMI-1640, D-384 on DMEM and CHO K-1 on HAM F-12 medium supplemented with 10% fetal bovine serum (FBS, Invitrogen, Karlsruhe, Germany), 1% antibiotic-antimitotic solution (100 units/mL penicillin G, 100 µg/mL streptomycin, and 0.25 µg/mL amphotericin B, Gibco, Grand Island, NY, USA), and 1% L-glutamine (2 mM, Gibco). The cells were incubated at 37 °C in a 5% CO2 atmosphere. The viable cells were counted using the trypan blue exclusion method in a hemocytometer.
(§2) The MTS (5-[3-(carboxymethoxy)phenyl]-3-(4,5-dimethyl-2-thiazolyl)-2-(4-sulfo- phenyl)-2H-tetrazolium inner salt) cell viability assay was used to assess the inhibitory effects of the extracts on the survival of human cancer cell lines. A total of 3–5 × 10^3 cells/well were seeded into 96-well plates and were allowed to adhere for 24 h. […] Each concentration/assay was performed three times. Dimethyl sulfoxide (DMSO) was used as a negative control at a final concentration of 0.1% v/v, and 1 µM Doxorubicin was used as a positive control. The cells were incubated with the treatments for 48 h, after which 20 µL MTS (5 mg/mL, Aqueous One Solution Reagent, Gibco) was added and further incubated for 4 h at 37 °C. The absorbance was measured at 570 nm. The data obtained with cells treated with DMSO were defined to represent 100% viability.

RKO = assay: MTS cell viability assay on RKO cells; assay type: cell-based; conditions: Homo sapiens, 48 h; for inhibition at 100 µM: Dox 1 µM, mean ± SEM, NA = no activity, read-out: Percentage (%) of inhibition, RKO
Description: as §1, §2

HeLa = assay: MTS cell viability assay on HeLa cells; assay type: cell-based; conditions: Homo sapiens, 48 h, Dox 1 µM, mean ± SEM, NA = no activity, read-out: Percentage (%) of inhibition, HeLa
CHO-K1 = assay: MTS cell viability assay on immortalized CHO-K1 cells; assay type: cell-based, hamster; conditions: 48 h, Dox 1 µM, mean ± SEM, NA = no activity, read-out: Percentage (%) of inhibition, CHO-K1
Description: as §1, §2

[1] = DPPH radical scavenging assay; conditions: 30 min, 515 nm
Description: The stock solution of the compounds was prepared by dissolving 4 in dimethyl sulfoxide (DMSO) to a concentration of 4 mg/mL. The solution was diluted with methanol until a concentration of 400 µg/mL was obtained and then used immediately.
The experimental procedure was adapted from the literature. Briefly, 100 µL of a 0.2 mM methanol solution of DPPH (2, 2-diphenyl-1-picrylhydrazyl) radical were added to 100 µL of methanolic solutions of 4 prepared as serial two-fold dilutions from the stock solution in 96-well microfilter plates. Standards and edaravone were also prepared in the same concentrations. The mixture was incubated in dark at room temperature for 30 min and the absorbance was read at 515 nm on a Cytation 5 (BioTek) spectrophotometer.
The % DPPH scavenging activity was then calculated by using the following formula:(1) % DPPH scavenging = 100 × [(Asample+DPPH−Asample blank)/(ADPPH−Asolvent)]
The antioxidant activity of the compound was expressed as IC50, which is defined as the concentration that could scavenge 50% of the DPPH free radical. The IC50 values were calculated in GraphPad Prism 7.02 (GraphPad Software, Corp.) The results are given as a mean ± standard deviation (SD) of experiments done in triplicate.

[2] = test system: Leishmania mexicana cells; assay: Comet assay of Leishmania mexicana cells; assay type: cell-based; set-up: Comet tail length, mean (vary) / Comet tail length, median (Q50): unit not given here; conditions: L. mexicana, 24 h at MIC; MMS 0.011%; Kruskal-Wallis $means
Description: We quantified DNA breaks by a comet assay to determine if these compounds are genotoxic. Here, L. mexicana cells were exposed for 24 h to MIC concentrations previously determined (see Materials and Methods Section) for each compound. Figure 1 represents the measurements obtained for tail length. All compounds generated DNA breaks expect 4s. […] Samples with DMSO and MMS (0.011%) were included as controls. Some representative pictures are shown at Figure S4. The effect of 4p could not be determined because the cells appear to be very damaged. The data was subjected via a Kruskal–Wallis one-way ANOVA (Statistical Analyses S2). […] These observations support a mechanism of action through the generation of DNA damage.
For leishmania, a method previously described for yeast was adapted. Briefly, after incubating the cells in presence of the compounds for 24 h, cells were collected and washed with buffer S (1 M sorbitol, 25 mM KH2PO4 in ultrapure water and adjust to pH 6.5 with NaOH). The pellet was resuspended in 400 µL of 1.5% LMA and 40 µL was spread (second layer) onto previously agarose-coated slides (first layer).
Slides were immersed in cold lysis buffer (30 mM NaOH, 1 M NaCl, 0.05 % (w/v) lauroylsarcosine, 50 mM EDTA, and 10 mM Tris–HCl, pH 10) for 25 min and then in cold electrophoresis alkaline buffer (30 mM NaOH, 10 mM EDTA, and 10 mM Tris–HCl, pH 10). They were then subjected to electrophoresis at 26V and 300 mA. Slides were immersed in neutralization buffer (10 mM Tris–HCl, pH 7.4; prepared in advance and stored at 4 °C) for 10 min at room temperature. The cells were then treated with proteinase K (20 min, 37 °C in humid chamber), followed by a new neutralization step. To dehydrate the slides, they were immersed in EtOH 90% and EtOH absolute for 10 min each. Finally, the slides were stained with Sybr Gold 1X.
The DNA migration was analyzed using a LEICA microscope with fluorescence (40×) by scoring 100 cells per slide in duplicate. The tail moment parameter was then analyzed by the Comet Score software.

Row | SMILES | inhibition at 100 µM (MCF-7) [%] | inhibition at 100 µM (RKO) [%] | IC50 (RKO; 15-150 µM, mean ± SEM of triplicates) [µM] | inhibition at 100 µM (HeLa) [%] | inhibition at 100 µM (CHO-K1) [%] | IC50 [1] [µM] | melting point [°C] | Comet tail length, mean (vary) [2] | Comet tail length, median (Q50) [2]
1 | CC1=NN(c2ccccc2)C(=O)[C@@]12C(c1ccc(C(F)(F)F)cc1)[C@@]21C(=O)N(c2ccccc2)N=C1C (relative stereo) [4r, (5R*,6R*)-11-(4-Trifluoromethylphenyl)-4,10-dimethyl-2,8-diphenyl-2,3,8,9-tetraazadispiro[4.0.4.1]undeca-3,9-diene-1,7-dione] | 45.8 ± 2.11 | 64.71 ± 0.52 | 60.7 ± 9.95 | 50.2 ± 0.52 | 4.74 ± 3.04 | > 300 | 154.6 to 156.5 | 96310000 | 98500000
2 | CC1=NN(c2ccccc2)C(=O)[C@@]12C(c1ccccc1[N+](=O)[O-])[C@@]21C(=O)N(c2ccccc2)N=C1C (relative stereo) [4c, (5R*,6R*)-11-(2-Nitrophenyl)-4,10-dimethyl-2,8-diphenyl-2,3,8,9-tetraazadispiro[4.0.4.1]undeca-3,9-diene-1,7-dione] | 16.7 ± 5.36 | 37.3 ± 1.22 | – | 24.8 ± 1.74 | 2.62 ± 2.2 | > 300 | 165.1 to 165.5 | 70710000 | 72500000
